In assay [1] the test system is B6 mice with AAC. The experiment in a line: Chronic pressure overload (AAC) model, 7 days of treatment: cardiac p-Srsf1 and echocardiography. Particulars: 5 mg/kg/d for 7 days. The format is in vivo, mouse. As to the method:
A, The GRK2-mediated phosphorylation of Srsf1 was determined by immunoblot in cardiac lysates prepared from hearts of non-transgenic B6 mice after treatment (i.p.) for 5 h with 10 mg/kg of 1-(1,3-benzodioxol-5-yl)-4-(cyclopropane-carbonyl)-3-hydroxy-2-phenyl-2H-pyrrol-5-one (“Compound-1”), 4-(1,3-benzodioxol-5-yl)pyrimidine (“Compound-4”), 1-(1,3-benzodioxol-5-ylmethyl)-5-(4-fluorophenyl)-2-methyl-pyrrole-3-carboxamide (“Compound-2”), or (4R)-N3-(1,3-benzodioxol-5-ylmethyl)-N4-[[3-(trifluoromethyl)phenyl]-methyl]pyrrolidine-3,4-dicarboxamide (“Compound-5”) relative to vehicle-treated B6 controls (“con”). […] B, Left panel: The AAC-induced cardiac p-Srsf1 content was determined in cardiac lysates from B6 mice with AAC after treatment for 7 days with 5 mg/kg/d of 1-(1,3-benzodioxol-5-yl)-4-(cyclopropane-carbonyl)-3-hydroxy-2-phenyl-2H-pyrrol-5-one (“Compound-1”) or (4R)-N3-(1,3-benzodioxol-5-ylmethyl)-N4-[[3-(trifluoromethyl)phenyl]-methyl]pyrrolidine-3,4-dicarboxamide (“Compound-5”) relative to vehicle-treated B6 controls with AAC (“AAC-con”). […] Right and lower panels: Cardiac function parameters were determined by echocardiography in B6 mice with AAC after treatment for 7 days with “Compound-1” or “Compound-5” relative to vehicle-treated B6 controls with AAC ((±s.d.; n=5 (A) and n=3 (B); Dunnett's Multiple Comparison Test vs. con (A) or AAC-con (B)). […]

Assay [2] concerns GRK2-mediated phosphorylation of SRSF1. The experiment in a line: Immunoblot of SRSF1 phosphorylation (pSRSF1) in HEK (human embryonic kidney) cells. The format is cell-based. Particulars: 10 microM, 60 h, relative to vehicle. On the procedure: A, The GRK2-mediated phosphorylation of SRSF1/Srsf1 was determined by immunoblot in lysates from isolated neonatal cardiomyocytes from Tg-SRSF1 mice after incubation for 60 h with 10 microM of paroxetine, 1-(1,3-benzodioxol-5-yl)-4-(cyclopropane-carbonyl)-3-hydroxy-2-phenyl-2H-pyrrol-5-one (“Compound-1”) or 4-(1,3-benzodioxol-5-yl)pyrimidine (“Compound-4”) relative to vehicle-treated control (“C”) cardiomyocytes. B, Immunoblot detection of GRK2-mediated phosphorylation of SRSF1 (pSRSF1) was performed with lysates from HEK (human embryonic kidney) cells incubated for 60 h with 10 microM of 4-(1,3-benzodioxol-5-yl)pyrimidine (“Compound-4”), 1-(1,3-benzodioxol-5-ylmethyl)-5-(4-chlorophenyl)-2-methyl-pyrrole-3-carboxamide (“Compound-24”) or (4R)-N3-(1,3-benzodioxol-5-ylmethyl)-N4-[[3-(trifluoromethyl)phenyl]-methyl]pyrrolidine-3,4-dicarboxamide (“Compound-5”) relative to vehicle-treated controls (“C”).
Briefly, the hearts were dissected out from 2-3 day-old mice, atria and aorta were removed, and the hearts were transferred into sterile buffer A (137 mM NaCl, 5.36 mM KCl, 0.81 mM MgSO4, 5.55 mM dextrose, 0.44 mM KH2PO4, 0.34 mM Na2HPO4, 20 mM HEPES, 100 U/ml penicillin, 100 microg/ml streptomycin, pH 7.4). […]

Each structure is given as a SMILES string.

Take `O=C(C1=C(O)C(c2ccccc2)N(c2ccc3c(c2)OCO3)C1=O)C1CC1` (stereo not drawn) [Compound-1, 1-(1,3-benzodioxol-5-yl)-4-(cyclopropane-carbonyl)-3-hydroxy-2-phenyl-2H-pyrrol-5-one]: the “cardiac performance after chronic pressure overload imposed by AAC” value in assay [1] (echocardiography) was “improved”. The “chronic pressure overload-induced cardiac p-Srsf1 content” value in assay [1] (relative to vehicle) is listed as “retarded”.
Regarding `c1cc(-c2ccc3c(c2)OCO3)ncn1` [Compound-4, 4-(1,3-benzodioxol-5-yl)pyrimidine], the “SRSF1 phosphorylation in human kidney cells” value in assay [2] is reported as “inhibited”.

Source of the values: patent US11628159B2, “Cell-protective compounds and their use” (ETH ZURICH, priority 2017, dated 2023).
